{"source": "patent US6818630B1", "about": "“Biologically active materials” (ML Laboratories PLC, priority 1999, dated 2004)", "test_system": "B16F10 murine melanoma", "experiment": "Anticancer activity and survival in C57 black mice bearing s.c. B16F10 melanoma", "type": "in vivo, mouse", "experimental": "Twenty four C57 black mice were injected subcutaneously (s.c.) with 10^5 B16F10 murine melanoma cells as described above and then monitored daily for well-being and the presence of palpable tumours. When the tumours were palpable, mice were randomly assigned into groups of six and their tumours measured with a micrometer gauge. Tumour size and mouse body weight is recorded. Each group is then injected intra-peritoneally with either sterile saline (negative control), free doxorubicin (5 mg kg^−1) in sterile saline or dextrin-doxorubicin (11.8 wt %, 34% succinolyation) at either 5 mg kg^−1 or 10 mg kg^−1, on days 0,1 and 2. The mice were monitored daily and tumour size and body weight recorded. Once the tumour area exceeded 2.89 cm^2 the mice were culled according to UKCCCR guidelines. Mouse survival is then expressed as % T/C (test/control saline)."}
{"compound": "COc1cccc2c1C(=O)c1c(O)c3c(c(O)c1C2=O)C[C@@](O)(C(=O)CO)C[C@@H]3O[C@H]1C[C@H](N)[C@H](O)[C@H](C)O1", "note": "[doxorubicin]", "values": [{"measurement": "anticancer activity", "setting": "5 mg kg^-1 i.p.", "result": "not active"}, {"measurement": "body weight / toxicity", "setting": "5 mg kg^-1 i.p.", "result": "drop in body weight consistent with toxicity"}, {"measurement": "Toxic deaths", "setting": "5 mg kg^-1 i.p. on day 0,1,2", "result": "0/6"}, {"measurement": "Days survival after treatment (mean ± SD)", "setting": "5 mg kg^-1 i.p. on day 0,1,2, N = 6", "result": "4.5 ± 0.5^ns days"}, {"measurement": "T/C (%)", "setting": "5 mg kg^-1 i.p. on day 0,1,2, survival test/control saline", "result": 103, "unit": "%"}]}
